Measurements taken from patent US7998940B2, “Aptamers to von Willebrand factor and their use as thrombotic disease therapeutics” (Archemix Corp., priority 2004, dated 2011).
Several values for one entry are separate records, joined by “and”; a condition that tells them apart may be missing. Equal values may be shown once. [invdT] = inverted (3'-3') thymidine; d = 2'-deoxy (DNA); m = 2'-O-methyl

Tests used:
[1] = system: vWF dependent platelet plug formation, human whole blood; test: PFA-100 assay, human whole blood; assay type: cell-based; conditions: for ~IC95 PFA-100 (nM) with citrated human whole blood: minimum concentration that extends closing time to 300 seconds
Excerpt: Another assay of this Example, using the PFA-100 instrument, is an agonist independent but vWF dependent assay that uses the PFA-100 instrument (Harrison et al., Clin. Lab. Haem., v24, p 225-32 (2002)). The PFA-100 simulates the formation of a hemostatic plug under conditions of high shear force in vivo by recording the time required for a platelets to aggregate and block the flow of citrated whole blood through a microscopic aperture in a membrane coated with collagen and either epinephrine or ADP. This activity is von Willebrand factor dependent as high MW vWF multimers bind to immobilized collagen on the membrane and then bind to and activate platelets because of the shear force induced by drawing the blood through the microscopic aperture.
Fresh whole blood was collected from healthy non-steroidal anti-inflammatory drug (NSAID) free cynomolgus macaques. Aptamers were diluted with physiological saline from Aldon (Cat#9420306) in no-additive vacutainer tubes (Cat#366434, Becton Dickenson). Samples were loaded onto collagen/epinephrine test cartridges (Cat#B4170-20A, Dade Behring) which were used in the PFA-100 machine (Dade Behring). Trigger solution (Cat#B4170-50, Dade Behring) was used in the self-test and to pre-wet the test cartridges. O-ring cleaning pads (Cat#B4170-73, Dade Behring) were used in the self-test and in the O-ring cleaning process.
A self-test, which included an O-ring cleaning process, was always run on the PFA-100 machine before running any samples to ensure proper function of the machine.
During the entire experiment, the tubes of whole blood were gently inverted every five minutes to prevent settling.
In order to assay the titration of aptamer in whole blood, the aptamer was added to no-additive vacutainer tubes and diluted to the desired concentrations (ex: 0 nM, 1 nM to 1000 nM) using physiological saline such that the final volume was […]. When the PFA-100 was ready to run the next set of samples, 1940 μl of whole blood was added to the tube containing a concentration of aptamer. This tube was gently inverted three times to thoroughly mix the aptamer and blood. Samples were always run in duplicate on the PFA-100 machine. 800 μl of this blood mixture was loaded into the collagen/epinephrine test cartridges. The test cartridges were loaded onto the PFA-100 machine. The time of occlusion of the aperture was measured by the PFA-100, with a maximal time of 300 seconds. We estimate the IC95 in this assay to be the minimum concentration of aptamer that extends the closing time to 300 seconds.

platelet function = test: ex vivo PFA-100 platelet function after 0.5 mg/kg IV bolus in cynomolgus macaques; conditions: 0.5 mg/kg single IV bolus
Method: Following IV administration, blood was collected percutaneously at various time points post-dose for PK and PD analysis. PD effect of ARC1779 on platelet function was determined by PFA-100 assays and effect of ARC1779 on bleeding was measured by CBT time. In addition, plasma samples were analyzed by HPLC for quantitation of ARC1779 levels. PK parameter estimates were determined by 2-compartment analysis.
C. macaques were dosed at 0.5 mg/kg IV bolus with ARC1779 (SEQ ID NO 320). PFA-100 closure time, BIPA and cutaneous bleeding time (“CBT”) were all measured as a function of time throughout the studies. BIPA and PFA-100 closure times were measured as described in previously in Example 3. Cutaneous bleeding times were measured using standard protocols described as follows.

[2] = pharmacokinetics after 3 mg/kg IV in cynomolgus macaques (Oligreen, HPLC); assay type: in vivo
Method: ARC1368 (SEQ ID NO 291), 1779 (SEQ ID NO 320) and 1780 (SEQ ID NO 321) (as described in Example 2 above) were injected intravenously into cynomolgus macaques (n=3/group) at a dosage of 3 mg/kg which was expected to yield an instantaneous plasma concentration of 3 uM, approximately 30-fold higher than the putative effective dose. Subsequently, citrated blood samples were collected at regular intervals and processed for plasma.
Subsequently, plasma aptamer concentrations were determined using the Oligreen assay (Gray et al., Antisense and Nucleic Acid Drug Development 7 (3):133-140 (1997). The data were subsequently analyzed using the program WinNonlin to yield the pharmacokinetic parameters listed in Tables 29 to 31 below.
Following the Oligreen assay analysis, plasma aptamer concentrations were determined for the animals dosed with ARC1779 (SEQ ID NO 320) using a validated HPLC-based assay. The HPLC data were analyzed via noncompartmental and 2-compartment analysis using the program WinNonlin.

[3] = not given; remark: listed apart in the source
[4] = system: ADP induced platelet aggregation; test: ADP Induced Platelet Aggregation (AIPA) in human PRP; assay type: cell-based; conditions: in words, 10 micromolar ADP
Method: Another assay of this Example used ADP to induce platelet aggregation.
AIPA was performed with human PRP exactly as was done for BIPA described above in Example 3C with the exception that instead of adding botrocetin, 10 micromolar ADP (Chronolog, Haverton, Pa.) was added to induce platelet aggregation.

vWF = vWF (Homo sapiens, UniProt P04275, D1472H/Q852R/T1381A); test: cellular / biological vWF dependent assays of Example 3, not specified further; assay type: cell-based; conditions: in words; FACS, BIPA (and PFA-100) assays of Example 3
Chain of vWF (P04275 764-2813 Q852R/T1381A/D1472H): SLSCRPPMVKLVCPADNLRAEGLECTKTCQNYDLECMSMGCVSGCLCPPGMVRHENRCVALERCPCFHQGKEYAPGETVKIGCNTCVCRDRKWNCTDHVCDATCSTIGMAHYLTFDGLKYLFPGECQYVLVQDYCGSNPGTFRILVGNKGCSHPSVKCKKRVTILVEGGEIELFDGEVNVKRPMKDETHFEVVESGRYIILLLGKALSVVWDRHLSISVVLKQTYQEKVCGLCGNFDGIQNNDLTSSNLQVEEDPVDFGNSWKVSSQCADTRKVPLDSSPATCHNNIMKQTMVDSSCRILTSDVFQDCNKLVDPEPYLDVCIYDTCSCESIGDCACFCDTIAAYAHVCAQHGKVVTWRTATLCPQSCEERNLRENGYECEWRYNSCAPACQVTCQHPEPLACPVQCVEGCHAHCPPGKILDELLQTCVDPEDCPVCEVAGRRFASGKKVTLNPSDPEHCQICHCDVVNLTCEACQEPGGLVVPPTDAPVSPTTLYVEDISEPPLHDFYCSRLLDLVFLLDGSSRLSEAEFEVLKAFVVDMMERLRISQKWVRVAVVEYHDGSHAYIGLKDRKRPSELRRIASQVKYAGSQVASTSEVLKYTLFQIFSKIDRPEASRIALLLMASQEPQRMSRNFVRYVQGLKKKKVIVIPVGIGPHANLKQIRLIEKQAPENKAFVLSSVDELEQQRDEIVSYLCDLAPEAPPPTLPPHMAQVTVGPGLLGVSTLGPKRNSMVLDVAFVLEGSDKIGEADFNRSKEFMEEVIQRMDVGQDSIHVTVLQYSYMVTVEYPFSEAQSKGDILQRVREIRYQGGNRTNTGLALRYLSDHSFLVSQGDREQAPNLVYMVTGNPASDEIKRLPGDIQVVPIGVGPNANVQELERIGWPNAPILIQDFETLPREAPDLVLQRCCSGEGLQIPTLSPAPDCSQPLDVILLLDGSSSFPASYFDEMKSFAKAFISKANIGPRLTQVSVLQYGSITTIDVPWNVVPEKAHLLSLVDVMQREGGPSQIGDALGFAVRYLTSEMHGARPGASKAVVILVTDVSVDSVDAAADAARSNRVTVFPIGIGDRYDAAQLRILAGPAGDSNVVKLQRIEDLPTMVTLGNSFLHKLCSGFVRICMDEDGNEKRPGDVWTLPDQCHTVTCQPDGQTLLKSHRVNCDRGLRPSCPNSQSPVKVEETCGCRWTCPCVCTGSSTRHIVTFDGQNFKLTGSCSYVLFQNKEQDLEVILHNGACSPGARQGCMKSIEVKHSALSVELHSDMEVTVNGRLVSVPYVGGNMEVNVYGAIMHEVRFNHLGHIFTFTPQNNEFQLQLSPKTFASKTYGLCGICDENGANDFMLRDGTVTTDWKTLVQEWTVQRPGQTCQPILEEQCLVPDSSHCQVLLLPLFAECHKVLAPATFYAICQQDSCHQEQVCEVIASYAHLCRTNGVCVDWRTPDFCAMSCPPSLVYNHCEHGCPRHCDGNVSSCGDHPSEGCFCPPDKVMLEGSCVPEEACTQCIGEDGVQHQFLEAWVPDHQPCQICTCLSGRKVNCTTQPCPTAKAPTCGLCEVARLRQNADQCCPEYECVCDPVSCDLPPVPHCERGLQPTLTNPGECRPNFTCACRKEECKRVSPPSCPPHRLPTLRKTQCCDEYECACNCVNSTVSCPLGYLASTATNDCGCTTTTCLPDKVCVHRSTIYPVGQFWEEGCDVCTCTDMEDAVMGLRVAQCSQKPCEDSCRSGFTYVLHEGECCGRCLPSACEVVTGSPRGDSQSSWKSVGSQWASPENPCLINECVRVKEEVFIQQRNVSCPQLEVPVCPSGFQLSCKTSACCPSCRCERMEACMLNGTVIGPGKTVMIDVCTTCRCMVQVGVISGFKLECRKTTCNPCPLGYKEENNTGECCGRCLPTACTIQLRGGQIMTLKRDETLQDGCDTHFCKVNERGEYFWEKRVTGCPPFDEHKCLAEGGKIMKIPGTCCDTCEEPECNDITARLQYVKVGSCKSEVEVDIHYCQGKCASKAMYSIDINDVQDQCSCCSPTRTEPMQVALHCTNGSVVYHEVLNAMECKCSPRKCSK
Excerpt: The effectiveness of various aptamers in blocking vWF function in several biological assays is described in this Example.
In one assay botrocetin is used. Botrocetin, a protein isolated from snake venom, is known to induce von Willebrand Factor binding to the gpib receptor on live and fixed platelets. This reaction causes agglutination of suspensions of fixed platelets via vWF multimerization. In preparations of platelet rich plasma (hereinafter “PRP”), vWF/botrocetin induction of agglutination is followed by a second phase of platelet aggregation caused by metabolic activation of the platelets. These two reactions: vWF binding to fixed platelets and vWF mediated platelet aggregation, can be used to measure the activity of aptamers of the invention.

[5] = 3 mg/kg IV, monkeys, Oligreen assay, noncompartmental, individual animals 2101, 2103, 2104
[6] = 3 mg/kg IV, monkeys, Oligreen assay, noncompartmental, mean of 3 animals
[7] = cynomolgus monkey, in vivo, iv, 3 mg/kg

Question: With “PEG20K-NH2-mGmCmGmUdGdCdAmGmUmGmCmCmUmUmCmGmGmCdCmG-s-TmGdCdGdGTmGmCdCmUdCdCmGmUdCmAmCmGmC-3T [ARC1779]” as the molecule, how does the “~IC95 PFA-100 (nM) with citrated human whole blood” value (“~IC95 PFA-100 (nM)” for short) [1] read?
Answer: The value was about 100 nM.

Question: And the “plasma concentration at which platelet function returned to normal (PFA-100)” value (platelet function)?
Answer: The value was “approximately 77 nM”.

Question: What about the “distribution half-life (t1/2α)” value ([2]; 3 mg/kg IV, HPLC-based assay) of the same molecule?
Answer: The value was 1.4 h.

Question: What about the “elimination half-life (t1/2β)” value ([2]; 3 mg/kg IV, HPLC-based assay) of the same molecule?
Answer: Its value is 12.9.

Question: And the “distribution phase α-half-life” value ([2]; 3 mg/kg IV, Oligreen assay)?
Answer: The value was about 2 h.

Question: What about the AUClast [2, 5] of the same molecule?
Answer: The AUClast was 309.245 µg·h/mL and 336.59 µg·h/mL and 235.503 µg·h/mL.

Question: What about the Cmax [2, 5] of the same molecule?
Answer: The Cmax was 69.065 µg/mL and 65.717 µg/mL and 70.344 µg/mL.

Question: And the MRTlast [2, 5]?
Answer: Its MRTlast is 5.27 h and 4.66 h and 2.69 h.

Question: What about the Tmax [2, 5] of the same molecule?
Answer: Its Tmax is 0.25 hr (2×) and 0.50 hr.

Question: What about the “AUClast, Mean” value [2, 6] of the same molecule?
Answer: The value was 293.779 µg·h/mL.

Question: And the “Cmax, Mean” value [2, 6]?
Answer: Its value is 68.375 µg/mL.

Question: What about the “MRTlast, Mean” value [2, 6] of the same molecule?
Answer: Its value is 4.21 h.

Question: And the “Tmax, Mean” value [2, 6]?
Answer: The value was 0.33 h.

Question: And the concentration-time profile ([2]; in words, 3 mg/kg IV, HPLC method)?
Answer: Its concentration-time profile is “biphasic”.

Question: What about the pharmacokinetic profile ([2]; in words, 3 mg/kg IV, mean concentration-time profile, OliGreen assay) of the same molecule?
Answer: The pharmacokinetic profile was “mainly monophasic”.

Question: With “dGdGdCdGTdGdCdAdGTdGdCdCTTdCdGdGdCdCdGTdGdCdGdGTdGdCdCTdCdCdGTdCdAdCdGdCdC-3T (DNA GGCGTGCAGTGCCTTCGGCCGTGCGGTGCCTCCGTCACGCC; DNA, [invdT] at 3' end, backbone and methylation of C not given here) [ARC1172, ARC1115 with 3'-inverted dT]” as the molecule, how does the “T½ Human plasma” value read?
Answer: Its value is 17 h.

Question: What about the “T½ Rat plasma” value [3] of the same molecule?
Answer: Its value is 3 h.

Question: What about the “~IC95 PFA-100 (nM)” value [1] of the same molecule?
Answer: The value was about 100 nM.

Question: For “mGmCmGmUdGdCdAmGmUmGmCmCmUmUmCmGmGmCdCmG-s-TmGdCdGdGTmGmCdCmUdCdCmGmUdCmAmCmGmC-3T (GCGUGCAGUGCCUUCGGCCGTGCGGTGCCUCCGUCACGC; sugars from the 5' end mmmmdddmmmmmmmmmmmdmdmddddmmdmddmmdmmmm, [invdT] at 3' end, backbone not given here) [ARC1368]”, which “T½ Human plasma” value is on record?
Answer: The value was 63 h.

Question: What about the “T½ Rat plasma” value [3] of the same molecule?
Answer: Its value is 21 h.

Question: What about the “~IC95 PFA-100 (nM)” value [1] of the same molecule?
Answer: The value was about 100 nM.

Question: And the “potency in PFA-100 assay” value ([1]; in words, human whole blood)?
Answer: The value was “potency comparable to ReoPrO™”.

Question: What about the “ability to block AIPA” value [4] of the same molecule?
Answer: Its value is “no ability to block AIPA”.

Question: And the “AUC0-last, Mean” value [2, 7]?
Answer: The value was 25224 ng·h/mL.

Question: And the “MRTlast, Mean” value [2, 7]?
Answer: The value was 4.48 h.

Question: What about the distribution phase [2, 7] of the same molecule?
Answer: Its distribution phase is “rapid distribution phase”.

Question: And the pharmacokinetic profile [2, 7]?
Answer: Its pharmacokinetic profile is “mainly monophasic”.

B1: AMX237.G6: DNA SELEX 2 aptamer clone (nucleic acid)
DNA: CTACCTACGATCTGACTAGCGTGCAGTGCCTATTCCAGGCCGTGCGGTGCCTCCGTCACGCTTACTCTCATGTAGTTCC
modifications: DNA, backbone and methylation of C not given here
notes: DNA SELEX 2 aptamer clone
Question: With B1 as the molecule, how does the “activity in the cellular / biological assays” value (vWF) read?
Answer: The value was “slightly more potent”.
